Measurements from patent publication US9604982B2, “P2X7 modulators” (Janssen Pharmaceutica NV, priority 2013, dated 2017).
Like-named read-outs stand apart in the source and are kept apart here.

Biological target: P2X7 (Homo sapiens (Human), UniProt Q99572)
Test: P2X7 antagonism in human peripheral blood mononuclear cells (PBMCs), IL-1β release after LPS + Bz-ATP (ELISA)
Assay type: cell-based
Settings: 0.5 mM Bz-ATP; for remaining activity at 10 µM: read-out: PBMC 10 μM (% control); for PBMC 10 μM (% control): Table 3 (additional runs)
Experimental: Human blood was collected using a blood donor program. […] Cells were incubated for an additional 1.5 hours. […] Data are analyzed and graphed on Graphpad Prism 5. […] The IC50 for each compound is then uploaded into 3DX.

[1] = P2X7, Table 3 (additional runs), 10 μM compound

P2X7, sequence (Q99572 whole entry): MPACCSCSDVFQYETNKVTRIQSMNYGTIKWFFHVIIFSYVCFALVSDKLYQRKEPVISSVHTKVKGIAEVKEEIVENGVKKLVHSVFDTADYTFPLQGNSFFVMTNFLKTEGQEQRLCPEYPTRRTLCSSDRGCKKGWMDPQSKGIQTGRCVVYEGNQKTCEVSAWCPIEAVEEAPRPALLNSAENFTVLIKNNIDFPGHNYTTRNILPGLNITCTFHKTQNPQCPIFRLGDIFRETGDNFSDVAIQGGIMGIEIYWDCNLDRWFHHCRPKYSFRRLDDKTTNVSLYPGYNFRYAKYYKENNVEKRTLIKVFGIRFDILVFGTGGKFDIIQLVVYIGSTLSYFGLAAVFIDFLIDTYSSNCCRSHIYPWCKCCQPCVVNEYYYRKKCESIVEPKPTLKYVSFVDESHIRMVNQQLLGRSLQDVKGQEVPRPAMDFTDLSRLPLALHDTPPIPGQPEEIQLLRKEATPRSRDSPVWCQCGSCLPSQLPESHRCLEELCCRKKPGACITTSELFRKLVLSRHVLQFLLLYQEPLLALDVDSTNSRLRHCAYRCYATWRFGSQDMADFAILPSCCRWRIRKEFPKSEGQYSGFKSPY

Row | Structure (SMILES) | remaining activity at 10 µM (P2X7, Table 2, 10 μM compound) | PBMC 10 μM (% control) (10 μM compound) | remaining activity at 10 µM [1]
1 | Cc1nc2c(c(-c3ccn[nH]3)n1)C[C@@H](C)N(C(=O)c1ccc(F)cc1Cl)C2 (single isomer, unassigned) [Example 91, (R*)-(2-chloro-4-fluorophenyl)(2,6-dimethyl-4-(1H-pyrazol-5-yl)-5,6-dihydropyrido[3,4-d]pyrimidin-7(8H)-yl)methanone] | -8.8% | −8.8 % control | 
2 | Cc1nc2c(c(-c3ccn[nH]3)n1)C[C@@H](C)N(C(=O)c1cccc(Cl)c1Cl)C2 (single isomer, unassigned) [Example 68, (R*)-(2,3-dichlorophenyl)(2,6-dimethyl-4-(1H-pyrazol-5-yl)-5,6-dihydropyrido[3,4-d]pyrimidin-7(8H)-yl)methanone] | -0.5% | −0.5 % control | 
3 | C[C@H]1c2ncnc(-c3ccn[nH]3)c2CCN1C(=O)c1ccc(F)c(C(F)(F)F)c1Cl (single isomer, unassigned) [Example 117, (S*)-(2-chloro-4-fluoro-3-(trifluoromethyl)phenyl)(8-methyl-4-(1H-pyrazol-5-yl)-5,6-dihydropyrido[3,4-d]pyrimidin-7(8H)-yl)methanone] | 0.1% | 0.1 % control | 
4 | Cc1nc2c(c(-c3ccn[nH]3)n1)C[C@@H](C)N(C(=O)c1cccc(C(F)(F)F)c1C)C2 (single isomer, unassigned) [Example 78, (R*)-(2,6-dimethyl-4-(1H-pyrazol-5-yl)-5,6-dihydropyrido[3,4-d]pyrimidin-7(8H)-yl)(2-methyl-3-(trifluoromethyl)phenyl)methanone] | 1.4% | 1.4 % control | 
5 | C[C@H]1c2ncnc(-c3ccn[nH]3)c2CCN1C(=O)c1cccc(C(F)(F)F)c1Cl (single isomer, unassigned) [Example 114, (S*)-(2-chloro-3-(trifluoromethyl)phenyl)(8-methyl-4-(1H-pyrazol-5-yl)-5,6-dihydropyrido[3,4-d]pyrimidin-7(8H)-yl)methanone] | -0.5% | −0.5 % control | 
6 | Cc1nc2c(c(-c3ccn[nH]3)n1)C[C@H](C)N(C(=O)c1ccc(Cl)c(F)c1Cl)C2 [Example 72, (S)-(2,4-dichloro-3-fluorophenyl)(2,6-dimethyl-4-(1H-pyrazol-5-yl)-5,6-dihydropyrido[3,4-d]pyrimidin-7(8H)-yl)methanone] | -2.6% | −2.6 % control | 

Second part, the compound after the results:

Row | remaining activity at 10 µM (P2X7, Table 2, 10 μM compound) | PBMC 10 μM (% control) (10 μM compound) | remaining activity at 10 µM [1] | Structure (SMILES)
7 |  |  | 110% | COc1cncc(C(=O)N2Cc3nc(C)nc(-c4ccn[nH]4)c3CC2C)c1 (stereo not shown) [Example 147, (2,6-dimethyl-4-(1H-pyrazol-5-yl)-5,6-dihydropyrido[3,4-d]pyrimidin-7(8H)-yl)(5-methoxypyridin-3-yl)methanone]
8 |  |  | 67.4% | Cc1nc2c(c(-c3ccn[nH]3)n1)C[C@H](C)N(C(=O)c1cccc(F)c1Cl)C2 (single isomer, unassigned) [Example 145, (S*)-(2-chloro-3-fluorophenyl)(2,6-dimethyl-4-(1H-pyrazol-5-yl)-5,6-dihydropyrido[3,4-d]pyrimidin-7(8H)-yl)methanone]
9 | 38.2% |  |  | COCCn1ccc(-c2nc(C)nc3c2C[C@H](C)N(C(=O)c2cccc(C(F)(F)F)c2Cl)C3)n1 (single isomer, unassigned) [Example 127, (S*)-(2-chloro-3-(trifluoromethyl)phenyl)(4-(1-(2-methoxyethyl)-1H-pyrazol-3-yl)-2,6-dimethyl-5,6-dihydropyrido[3,4-d]pyrimidin-7(8H)-yl)methanone]
10 | 18.6% |  |  | Cc1nc2c(c(-c3ccn(CCF)n3)n1)C[C@@H](C)N(C(=O)c1cccc(C(F)(F)F)c1Cl)C2 (single isomer, unassigned) [Example 124, (R*)-(2-chloro-3-(trifluoromethyl)phenyl)(4-(1-(2-fluoroethyl)-1H-pyrazol-3-yl)-2,6-dimethyl-5,6-dihydropyrido[3,4-d]pyrimidin-7(8H)-yl)methanone]
